In US11866416B2, “Streptococcus mutans glucosyl transferase inhibitors for dental caries therapy” (UAB Research Foundation, priority 2018, dated 2024):
In brackets after ≈: the same amount, converted by molar mass. Read-outs that look alike come from different tables or passages of the source.

Tests used:
S. mutans UA159 = assay: Rat model of dental caries; conditions: for bacterial colonization versus control group / body weight over the course of the study / buccal, sulcal, and proximal surface caries scores: 100 μM topically twice daily for 4 weeks; for oral tissue (mucosal and gingival tissues) at sacrifice, treated versus non-treated: 100 μM twice daily for 4 weeks
Method: Rat model of dental caries. S. mutans in vivo colonization and virulence were evaluated using a rat model of dental caries as previously described (Crowley, P. J., Brady, L. J., Michalek, S. M. & Bleiweis, A. S. Virulence of a spaP Mutant of Streptococcus mutans in a Gnotobiotic Rat Model. Infection and Immunity 67, 1201-1206 (1999)). […] Rats were then infected with S. mutans UA159 for three consecutive days and provided a caries-promoting Teklad Diet 305 containing 5% sucrose (Harlan Laboratories, Inc., Indianapolis, IN.) and sterile drinking water ad libitum. One group of rats was then treated with vehicle control while another group was topically treated with the lead compound at 100 μM twice daily for 4 weeks beginning 10 days post infection. Following each treatment, drinking water was withheld for 60 min. Animals were weighed at weaning and at the termination of the experiment. The animals were euthanized, their mandibles excised for microbiological analysis of plaque samples on MS agar plates and BAP and for scoring of caries by the method of Keyes (Keyes, P. H. Dental caries in the molar teeth of rats. II. A method for diagnosing and scoring several types of lesions simultaneously. Journal of dental research 37, 1088-1099 (1958)). All experimental protocols were approved by University of Alabama at Birmingham Institutional Animal Care and Use Committee. The methods were carried out in accordance with the relevant guidelines and regulations.
Dental caries rat model. […] At the age of 20 days, rat pups were removed from isolators and randomly assigned into five groups. […] Rats were then infected with S. mutans UA159 for three consecutive days and provided a caries-promoting Diet 305, which contains 5% sucrose (TD.80406, diet with 62% corn starch, Harlan Laboratories, Madison, Wis.) and sterile drinking water ad libitum. The rats were then treated with the stilbene, water, or not treated respective of their study group as described above at 100 μM twice daily for 4 weeks beginning 10 days post infection. Drinking water was withheld for one hour after each treatment. Rats were weighed at weaning and after 45 days at the termination of the experiment. The animals were euthanized, their mandibles excised for microbiological analysis of plaque samples on MS agar plates and BAP and for scoring of caries by the method of Keyes. All experimental protocols were approved by the University of Alabama at Birmingham Institutional Animal Care and Use Committee and in accordance with the relevant guidelines and regulations.

S. gordonii = assay: Growth of commensal S. gordonii; assay type: cell-based, Streptococcus gordonii
Method: (§1) Cell viability of S. mutans, S. gordonii, S. sanguinis, Aggregatibacter actinomycetemcomitans and Actinomyces. […] The number of colony-forming units (CFU) per milliliter of each sample treated with selected compounds at different concentrations was enumerated after incubation for 24 h at 37° C. and compared to the values obtained from the DMSO control group. Overnight broth cultures were transferred by 1:50 dilutions into fresh THB medium and were allowed to grow until mid-exponential phase (OD470 nm 0.6) before transfer to 96-well plates containing desired concentration of the compound. After 16 h incubation, bacterial growth was measured at OD470, and normalized to the DMSO control (100%).
(§2) Cell viability of S. mutans and commensal S. gordonii and S. sanguinis. Effects of lead small molecules on cell viability were examined. The number of colony-forming units (CFU) per milliliter for each compound at different concentrations was determined after incubation for 24 h at 37° C. and compared to the values obtained from the DMSO control group.
(§3) Cell viability of S. mutans and commensal S. gordonii and S. sanguinis. […] DMSO served as a control group and provided a relative comparison for the number of colony-forming units (CFU) per milliliter for each compound at different concentrations was determined after incubation for 24 h at 37° C. The final concentration of DMSO used in the assays was 1%.

S. mutans = assay: microbe, parasite or virus in culture; assay type: cell-based, Streptococcus mutans; conditions: for Growth MIC50: Table 8, stilbenes
In short: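 Mid-exponential cultures (OD470 0.6) in THB were exposed to compound concentrations for 16 h, with growth read at OD470 and normalised to 1% DMSO control (100%). CFU/mL were also counted after 24 h at 37 °C and compared with the DMSO control.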

S. sanguinis = assay: Growth of commensal S. sanguinis; assay type: cell-based, Streptococcus sanguinis
Method: as §1, §2, §3

GtfC catalytic domain = GtfC catalytic domain (Streptococcus mutans serotype c (strain ATCC 700610 / UA159), UniProt P13470); assay: OctetRed96 binding kinetics, GtfC
Source text: To determine if the inhibition is attributed by the binding of the lead compound to the enzymes, the OctetRed96 system was used to characterize protein-small molecule binding kinetics. The his-tagged catalytic domains of GtfB and GtC were immobilized separately onto an anti-penta-HIS (HIS1K) biosensor which consists of high affinity, high specificity penta-his antibody pre-immobilized on a fiber optic biosensor. This sensor was then exposed to varying concentrations of #G43.
Expression and purification of GtfB and GtfC catalytic domains. The DNA fragment coding for either GtfB catalytic (residues 268 aa-1074 aa) or GtfC-catalytic (residues 295 aa-1103 aa) was PCR amplified with primer sets of GtfB-BamH1-F and GtfB-Xho1-R, GtfC-BamH1-F and GtfC-Xhol1-R respectively using S. mutans genomic DNA as a template. Each amplified fragment was cloned into pET-sumo vector respectively and transformed in Escherichia coli BL21(DE3). […]
Octet Red analysis. […] The rate constant, KD, was determined using the Octet® Red96 system (ForteBio, Menlo Park, Calif.). […] The proteins were captured on dip-and-read Anti-Penta-HIS (HIS1K) Biosensor. […] The binding of #G43 at 3-fold serial dilutions in phosphate buffer from 200, 66.6, 22.2, 7.4, 2.5 to 0 μM was assessed. […]
OctetRed analysis. […] Sensorgrams and the accuracy of the analysis was calculated using the ForteBio OctetRed analysis software (ForteBio, Menlo Park, Calif.).

[1] = Streptococcus mutans, Table 3, >300 = no inhibition up to 300 μM, NI = no inhibition up to 400 μM, read-out: Growth Inhibition MIC50
[2] = Streptococcus mutans, Table 4, stilbenes, average of at least 5 measurements, NI = no inhibition, read-out: Growth MIC50
[3] = average of at least 5 measurements, NI = no inhibition

GtfC catalytic domain, sequence (P13470 295-1103 limits assumed): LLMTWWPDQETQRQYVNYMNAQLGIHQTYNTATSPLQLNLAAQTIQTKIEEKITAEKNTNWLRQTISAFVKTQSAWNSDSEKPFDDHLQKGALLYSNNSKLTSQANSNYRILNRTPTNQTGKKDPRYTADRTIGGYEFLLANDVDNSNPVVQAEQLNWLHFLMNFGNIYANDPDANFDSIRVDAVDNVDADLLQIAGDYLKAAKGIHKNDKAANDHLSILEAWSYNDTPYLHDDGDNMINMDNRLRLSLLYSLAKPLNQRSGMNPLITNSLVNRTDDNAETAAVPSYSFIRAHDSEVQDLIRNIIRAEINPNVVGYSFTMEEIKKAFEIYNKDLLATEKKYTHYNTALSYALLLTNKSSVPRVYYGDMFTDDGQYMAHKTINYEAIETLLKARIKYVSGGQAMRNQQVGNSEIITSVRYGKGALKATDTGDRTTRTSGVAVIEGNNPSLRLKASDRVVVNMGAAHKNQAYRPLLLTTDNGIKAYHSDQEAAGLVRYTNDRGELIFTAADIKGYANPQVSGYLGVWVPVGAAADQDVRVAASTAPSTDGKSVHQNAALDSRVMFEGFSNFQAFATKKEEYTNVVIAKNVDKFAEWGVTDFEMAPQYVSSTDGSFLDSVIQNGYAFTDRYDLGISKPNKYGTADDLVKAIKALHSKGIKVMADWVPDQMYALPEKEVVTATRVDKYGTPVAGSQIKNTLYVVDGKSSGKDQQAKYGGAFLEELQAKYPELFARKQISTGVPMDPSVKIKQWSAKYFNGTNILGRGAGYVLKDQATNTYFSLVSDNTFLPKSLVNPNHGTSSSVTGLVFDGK

Row | Compound | bacterial colonization versus control group (S. mutans UA159) | body weight over the course of the study (S. mutans UA159) | buccal, sulcal, and proximal surface caries scores (S. mutans UA159) | effect on S. gordonii growth (S. gordonii; 200 μM, OD470) | S. mutans cell viability (CFU) versus control (S. mutans; up to 200 μM) | effect on S. sanguinis growth (S. sanguinis; 200 μM, OD470) | Kd (GtfC catalytic domain; 1:1 binding model) [µM] | oral tissue (mucosal and gingival tissues) at sacrifice, treated versus non-treated (S. mutans UA159) | decrease of S. gordonii cell density (S. gordonii; 400 μM) | inhibition at 52 µM (S. gordonii; Streptococcus gordonii, at 52 μM, read-out: growth of S. gordonii inhibited) [%] | inhibition of S. mutans cell viability (%) at 400 µM (S. mutans; Streptococcus mutans, 400 μM) [%] | MIC50 (S. mutans; [1]) [µM] | MIC50 (S. mutans; [2]) [µM] | inhibition at 52 µM (S. mutans; Streptococcus mutans, at 52 μM, read-out: growth of S. mutans inhibited) [%] | Growth MIC50 (S. mutans; [3]) [µM] | decrease of S. sanguinis cell density (S. sanguinis; 400 μM) | inhibition at 52 µM (S. sanguinis; Streptococcus sanguinis, at 52 μM, read-out: growth of S. sanguinis inhibited) [%] | Kd (GtfC catalytic domain; stilbenes, 1:1 binding mode) [µM]
1 | NC(=O)c1ccccc1NC(=O)c1cc2cc([N+](=O)[O-])ccc2s1 [#G43] | did not reach the statistically significant difference | did not lose weight | significantly reduced | did not have any effect on bacterial growth | No significant difference | did not have any effect on bacterial growth | 0.0469 |  |  |  |  |  |  |  |  |  |  | 
2 | Oc1cc(O)cc(/C=C/c2ccc(O)c(O)c2)c1 [Piceatannol] | not statistically significant | did not lose weight | significant reduction |  |  |  |  | no obvious differences | 15-18% | < 10 | 37 | 564 ± 38 (≈ 138 µg/mL) | 564 ± 37.8 (≈ 138 µg/mL) | < 10 | 564 ± 37.8 | 15-18% | < 10 | 
3 | Oc1ccc(/C=C/c2cc(O)cc(O)c2)cc1 [Resveratrol, reference compound] | not statistically significant | did not lose weight | significant reduction |  |  |  |  | no obvious differences |  |  |  | 546 ± 16 (≈ 125 µg/mL) | 546 ± 15.9 (≈ 125 µg/mL) |  | 546.4 ± 15.9 |  |  | 510
